According to PubChem BioAssay (NCI):
“And” between values parts separate entries of the source, which are not always exact repeats. Identical values can stand only once.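 The compound was tested at five concentrations on cells cultured in 96-well plates, with a 48-hour exposure period. GI50 is the concentration that inhibits growth by half. TGI denotes the concentration required for complete inhibition of growth.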

How the values were obtained:
Assay in all cases: growth of human tumour cells (NCI), 48 h
UACC-257 melanoma = system: UACC-257 melanoma
CCRF-CEM leukemia = system: CCRF-CEM leukemia
RXF 393 renal = system: RXF 393 renal
SNB-75 CNS = system: SNB-75 CNS
HS 578T breast = system: HS 578T breast
MALME-3M melanoma = system: MALME-3M melanoma
NCI/ADR-RES ovarian = system: NCI/ADR-RES ovarian
SF-295 CNS = system: SF-295 CNS
HL-60(TB) leukemia = system: HL-60(TB) leukemia
CAKI-1 renal = system: CAKI-1 renal

Structure (SMILES)	GI50 (UACC-257 melanoma)	TGI (UACC-257 melanoma)	GI50 (CCRF-CEM leukemia)	TGI (CCRF-CEM leukemia)	GI50 (RXF 393 renal)	TGI (RXF 393 renal)	GI50 (SNB-75 CNS)	TGI (SNB-75 CNS)	GI50 (HS 578T breast)	TGI (HS 578T breast)	GI50 (MALME-3M melanoma)	TGI (MALME-3M melanoma)	GI50 (NCI/ADR-RES ovarian)	TGI (NCI/ADR-RES ovarian)	GI50 (SF-295 CNS)	TGI (SF-295 CNS)	GI50 (HL-60(TB) leukemia)	TGI (HL-60(TB) leukemia)	GI50 (CAKI-1 renal)	TGI (CAKI-1 renal)
CC(C)(CCN=C(N)Nc1ccccn1)c1ccc(C(F)(F)F)cc1	18 µM	32.8 µM	17.7 µM	58.4 µM	14.6 µM	29.6 µM	12.9 µM	33.8 µM	18.1 µM	39.3 µM	14.3 µM	29.6 µM	17.5 µM	32.9 µM	14.9 µM	29.3 µM	17.1 µM	36 µM		
O=C(O)C1C2C=CC(C2)C1C(=O)O (configuration not stated)	> 100 µM	> 100 µM	> 100 µM	> 100 µM	> 100 µM	> 100 µM	> 100 µM	> 100 µM	> 100 µM	> 100 µM	> 100 µM	> 100 µM	> 100 µM	> 100 µM	> 100 µM	> 100 µM	> 100 µM	> 100 µM	> 100 µM	> 100 µM
COc1ccc2c(c1)C1OCCNC1CC2 (configuration not stated)		> 100 µM		> 100 µM		> 100 µM		> 100 µM		> 100 µM		> 100 µM		> 100 µM		> 100 µM		> 100 µM		> 100 µM
O=S(=O)(c1ccc(Br)cc1)N1CCN(S(=O)(=O)c2ccc(Br)cc2)CC1		> 100 µM		> 100 µM		> 100 µM		> 100 µM		> 100 µM		> 100 µM		> 100 µM		> 100 µM		> 100 µM		> 100 µM
O=C1CCCCC=C1C[N+](=O)[O-]	28.6 µM	> 100 µM	5.7 µM	23.3 µM	14.7 µM	35.2 µM	25.5 µM	68.8 µM	41.8 µM	> 100 µM	30.3 µM	53.5 µM	36.3 µM	> 100 µM	46.4 µM	> 100 µM	14 µM	> 100 µM	17.9 µM	45.8 µM
CN1CC[C@]2(c3cccc(O)c3)CC(=O)/C(=C/c3ccccc3)[C@H]1C2	2.6 µM	9.72 µM	2.53 µM	9.36 µM	2.5 µM	8.03 µM	3.89 µM	14.4 µM		12.1 µM		9.51 µM	2.42 µM	7.35 µM	4.5 µM	17 µM		5.45 µM		9.93 µM
Cc1[nH]c(C(=O)Nc2ccccc2OC2CCNCC2)c(Cl)c1Cl	1.04 µM	2.12 µM	1.37 µM	3.89 µM	0.816 µM	1.56 µM	0.56 µM	1.19 µM	0.898 µM	1.9 µM	0.809 µM	1.55 µM	1.27 µM	3.57 µM	0.917 µM	1.68 µM	1.05 µM	2.26 µM	0.781 µM	2.11 µM
c1cc(CSSCc2ccncc2)ccn1		> 100 µM		24.2 µM		> 75.7 µM		> 100 µM		76 µM		> 100 µM		> 85.3 µM		> 100 µM		42.4 µM		> 100 µM
COc1cc2nc(-c3ccc(Cl)cc3)cc(OCCCN3CCCC3)c2cc1OC	1.96 µM	4.87 µM	2.14 µM	7.09 µM	1.17 µM	3.78 µM	1.73 µM	5.09 µM	1.89 µM	6.68 µM	1.68 µM	4.52 µM	0.683 µM	11 µM	1.22 µM	2.94 µM	2.72 µM	8.33 µM	0.303 µM	4.15 µM
CSCC[C@H](NC(=O)[C@H](CC(C)C)NC(=O)[C@@H](Cc1ccccc1)NC(=O)CNC(=O)[C@@H](NC(=O)[C@H](C)NC(=O)[C@H](Cc1c[nH]c2ccccc12)NC(=O)[C@H](CCC(N)=O)NC(=O)[C@H](N)CC(N)=O)C(C)C)C(N)=O		> 12.5 µM		> 12.5 µM		> 12.5 µM		> 12.5 µM		> 12.5 µM		> 12.5 µM		> 12.5 µM		> 12.5 µM		> 12.5 µM		> 12.5 µM
N#CC1(Nc2ccc(-c3ccc(NC4(C#N)CCCC4)cc3)cc2)CCCC1		> 100 µM		61.2 µM		> 100 µM		> 100 µM		> 100 µM		> 100 µM		> 100 µM		> 100 µM		> 100 µM		> 100 µM
CSc1ccc2c(c1)N(CCC1CCCCN1C)c1ccccc1S2 (configuration not stated)	3.08 µM and 2.14 µM	11.6 µM and 6.3 µM	5.45 µM and 2.26 µM	21.1 µM and 27.4 µM	3.2 µM and 1.56 µM	15.4 µM and 5.23 µM	5.64 µM and 3.49 µM	22.1 µM and 12.3 µM	6.89 µM and 3.01 µM	28.1 µM and 13.2 µM	6.91 µM and 1.67 µM	23.8 µM and 3.67 µM	10.4 µM and 4.76 µM	24.1 µM and 18.5 µM	8.64 µM and 2.86 µM	22.6 µM and 8.7 µM	13.4 µM and 3.12 µM	30.3 µM and 9.22 µM	3.23 µM and 4.91 µM	13 µM and 18.3 µM
C=C1COC(O)(C2OCOC(C3CC(=O)NC(=O)C3)C2O)C1C (configuration not stated)	0.004 µM and 0.0126 µM	0.0278 µM and 0.0453 µM		0.00744 µM	0.00134 µM	0.00759 µM and 0.0177 µM and 0.0104 µM	0.00332 µM	0.0336 µM and 0.0195 µM	0.00428 µM	0.0265 µM	0.00285 µM	0.0154 µM and 0.0364 µM		0.163 µM	0.00249 µM	0.018 µM and 0.0423 µM	0.00217 µM	0.0123 µM	0.00394 µM and 0.019 µM	
COc1ccc(-c2nc(Nc3ccc(-c4nc5ccccc5[nH]4)cc3)nc(N3CCOCC3)n2)cc1			3.11 µM	> 100 µM	0.459 µM	2.51 µM	1.8 µM	10.5 µM	1.76 µM	6.96 µM	2.05 µM	3.95 µM	3.18 µM	26.7 µM	1.59 µM	4.7 µM	1.94 µM	5.67 µM	1.98 µM	5.02 µM
CCCCCCCCCCC/C=C\C[C@H](O)C/C=C1/C(=O)C=C[C@@H]1C/C=C\CCCC(=O)OC			0.923 µM	5.36 µM	0.827 µM	3.18 µM	2.07 µM	6.79 µM	0.986 µM	6.1 µM	0.803 µM	2.41 µM	0.925 µM	2.93 µM	1.37 µM	6.74 µM	0.835 µM	2.68 µM	1.07 µM	5.62 µM
